# PubChem BioAssay (NCI)
# Several values for one entry are separate records, joined by “and”; a condition that tells them apart may be missing. Equal values may be shown once.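 Step 1: Grow cells in 96-well plates. Step 2: Expose to compound for 48 hours at 5 concentrations. Step 3: Interpolate endpoints linearly; if unreached, use highest concentration. The concentration for 50% growth inhibition is given as GI50. At the TGI there is no net growth.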
# Columns and labels:
# Assay in all cases: growth of human tumour cells (NCI), 48 h
# [1] = test system: SK-MEL-5 melanoma
# [2] = test system: UACC-257 melanoma
# [3] = test system: SF-295 CNS
# [4] = test system: SF-539 CNS
# [5] = test system: RXF 393 renal
# [6] = test system: MCF7 breast
# [7] = test system: IGROV1 ovarian
# [8] = test system: SW-620 colon
# [9] = test system: DU-145 prostate
# [10] = test system: HOP-62 NSCLC
SMILES,TGI [1] [µM],TGI [2] [µM],TGI [3] [µM],TGI [4] [µM],TGI [5] [µM],TGI [6] [µM],TGI [7] [µM],TGI [8] [µM],TGI [9] [µM],TGI [10] [µM],GI50 [2],GI50 [5],GI50 [1] [µM],GI50 [3] [µM],GI50 [4] [µM],GI50 [6] [µM],GI50 [7] [µM],GI50 [8] [µM],GI50 [9] [µM]
Cc1cc2c(C)cc(=O)[nH]c2cc1N,> 100,> 100,> 100,> 100,> 100,> 100,> 100,> 100,> 100,> 100,–,–,–,–,–,–,–,–,–
CSC1CC2C(CC1(C)O)C2(C)C (stereo not given),> 100,> 100,–,> 100,> 100,–,> 100,> 100,–,> 100,40.8 µM and > 100 µM,29.6 µM and > 100 µM,–,–,–,–,–,–,–
O=C(Nc1cccc2cnccc12)c1cc2c(cc1Cl)Sc1nccn1S2(=O)=O,26.2,45.1,43.5,59.3,24.4,37.1,45.8,50.8,55.9,39.7,–,–,–,–,–,–,–,–,–
COc1ccc(Nc2nc3ccc(C(F)(F)F)cc3nc2C(=O)O)cc1OC,48.3,> 100,77.6,–,> 100,> 100,> 100,> 100,> 100,75.4,–,–,–,–,–,–,–,–,–
CCC12C[N+]3([O-])CCc4c([nH]c5ccccc45)C(C(=O)OC)(c4cc5c(cc4OC)N(C)C4C(O)(C(=O)OC)C(OC(C)=O)C6(CC)C=CCN7CCC54C76)CC(C3)C1O2 (stereo not given),12,35.1,1.86,0.821,4.65,–,14.9,20.4,–,> 100,–,–,–,–,–,–,–,–,–
CC(=O)OC[C@]1(C(=O)C(O)c2ccoc2)[C@H](C)CC[C@@]23COC(=O)C2=CCC[C@@H]31 (stereo not given in full),> 10,> 10,> 10,> 10,> 10,> 10,> 10,> 10,> 10,–,–,–,–,–,–,–,–,–,–
O=c1c2ncn(C3CC(O)C(CO)O3)c2nnn1Cc1ccccc1[N+](=O)[O-] (stereo not given),> 100,> 100,> 100,> 100,94.1,> 100,> 100,> 100,> 100,> 100,–,–,–,–,–,–,–,–,–
CCOC1CC(=O)c2c(Br)sc(Br)c21 (stereo not given),> 100,32.2,77.4,69.5,35.5,40.5,31,47.1,32.5,38.2,–,–,–,–,–,–,–,–,–
OC[C@@H](O)[C@H]1NC[C@@H](O)[C@H]1O,> 100,> 100,> 100,> 100,> 100,> 100,> 100,> 100,> 100,> 100,–,–,–,–,–,–,–,–,–
CC1(C)C(c2ccccc2)=[N+]([O-])C(C)(C)N1O,> 10,> 10,> 10,> 10,> 10,> 10,> 10,> 10,> 10,> 10,–,–,–,–,–,–,–,–,–
O=[N+]([O-])C(=C(N1CCCCC1)N1CCCCC1)/C(Cl)=C(\Cl)Br,46,61.6,> 100,69.2,62.9,88.9,90.8,38.5,> 100,> 100,–,–,–,–,–,–,–,–,–
CC(=O)NS(=O)(=O)c1ccc(NC(=O)c2c3ccccc3nc3ccccc23)cc1,> 100,> 100,> 100,> 100,–,> 100,> 100,> 100,> 100,> 100,–,–,–,–,–,–,–,–,–
CC(C)(C)C1=Cc2cc3cc(C(C)(C)C)[nH]c(=O)c3cc2S(=O)(=O)N1,–,58.7,94.4,–,–,–,–,44.8,–,63,–,–,–,–,–,–,–,–,–
Nc1c2ccccc2nc2c1ccc1ncccc12,> 100,> 100,> 100,49.9,98.4,72.1,> 100,> 100,> 100,–,–,–,–,–,–,–,–,–,–
NC(CSCc1ccccc1)C(=O)O (stereo not given),> 100,> 100,> 100,–,> 100,> 100,> 100,> 100,> 100,> 100,–,–,–,–,–,–,–,–,–
CC(CC(C#N)(c1ccccc1)c1ccccc1)N1CCCCC1 (stereo not given),33.6,29.6,65.8,–,> 100,74.7,> 100,49.5,> 100,88.4,–,–,–,–,–,–,–,–,–
c1ccc2c(c1)[nH]c1nc3cc(-c4ccc5nc6c(nc5c4)[nH]c4ccccc46)ccc3nc12,> 100,> 100,> 100,–,> 100,> 100,> 100,> 100,> 100,> 100,–,–,–,–,–,–,–,–,–
CCN(CC)CCNc1ccc2nnn3c4ccc(OC)cc4c(=O)c1c23,25.5,25.1,18.6,17.2,–,–,22.9,17.1,–,23.8,–,–,–,–,–,–,–,–,–
O=C1/C(=C/c2ccccc2S)N=C(c2ccccc2)N1c1nc2ccc(Sc3ccccc3)cc2[nH]1,38.6,69.2,72.5,–,> 100,84.5,> 100,> 100,> 100,> 100,–,–,–,–,–,–,–,–,–
CCC(C(=O)O)c1ccc(OCc2ccccc2)cc1 (stereo not given),> 100,> 100,> 100,> 100,> 100,–,> 100,> 100,–,> 100,–,–,–,–,–,–,–,–,–
Oc1ccc(-c2nnc3sc(-c4ccc(F)cc4)nn23)cc1,> 100,> 100,59.9,> 100,38.2,> 100,> 100,> 100,> 100,–,> 100 µM,15.6 µM,70.4,18.1,36.5,59.7,55.8,> 100,51.2
O=C1C(c2c(O)[nH]c3ccc(S(=O)(=O)O)cc23)=Nc2ccccc21,> 100,> 100,> 100,–,> 100,> 100,> 100,> 100,> 100,> 100,–,–,–,–,–,–,–,–,–
